Test results as given in ChEMBL document CHEMBL3217555, “Potent and selective inhibitors of human peptidylglycine -amidating monooxygenase” (Medchemcomm, 2011).
Where a SMILES comes first, the peptide text is derived from it.

How the values were obtained:
Xenopus laevis = organism: Xenopus laevis; experiment: (§1) Competitive binding affinity to Xenopus laevis PAM using (R)-Tyr-(S)-ValGly as substrate after 1 hr by HPLC analysis
[1] = as §1
[2] = molecular target: T1, Peptidyl-glycine alpha-amidating monooxygenase (Homo sapiens, UniProt P19021); experiment: (§2) Competitive binding affinity to PAM extracted from human H889 cells using (R)-Tyr-(S)-ValGly as substrate after 2 hrs by HPLC analysis
T1 sequence (P19021 whole entry): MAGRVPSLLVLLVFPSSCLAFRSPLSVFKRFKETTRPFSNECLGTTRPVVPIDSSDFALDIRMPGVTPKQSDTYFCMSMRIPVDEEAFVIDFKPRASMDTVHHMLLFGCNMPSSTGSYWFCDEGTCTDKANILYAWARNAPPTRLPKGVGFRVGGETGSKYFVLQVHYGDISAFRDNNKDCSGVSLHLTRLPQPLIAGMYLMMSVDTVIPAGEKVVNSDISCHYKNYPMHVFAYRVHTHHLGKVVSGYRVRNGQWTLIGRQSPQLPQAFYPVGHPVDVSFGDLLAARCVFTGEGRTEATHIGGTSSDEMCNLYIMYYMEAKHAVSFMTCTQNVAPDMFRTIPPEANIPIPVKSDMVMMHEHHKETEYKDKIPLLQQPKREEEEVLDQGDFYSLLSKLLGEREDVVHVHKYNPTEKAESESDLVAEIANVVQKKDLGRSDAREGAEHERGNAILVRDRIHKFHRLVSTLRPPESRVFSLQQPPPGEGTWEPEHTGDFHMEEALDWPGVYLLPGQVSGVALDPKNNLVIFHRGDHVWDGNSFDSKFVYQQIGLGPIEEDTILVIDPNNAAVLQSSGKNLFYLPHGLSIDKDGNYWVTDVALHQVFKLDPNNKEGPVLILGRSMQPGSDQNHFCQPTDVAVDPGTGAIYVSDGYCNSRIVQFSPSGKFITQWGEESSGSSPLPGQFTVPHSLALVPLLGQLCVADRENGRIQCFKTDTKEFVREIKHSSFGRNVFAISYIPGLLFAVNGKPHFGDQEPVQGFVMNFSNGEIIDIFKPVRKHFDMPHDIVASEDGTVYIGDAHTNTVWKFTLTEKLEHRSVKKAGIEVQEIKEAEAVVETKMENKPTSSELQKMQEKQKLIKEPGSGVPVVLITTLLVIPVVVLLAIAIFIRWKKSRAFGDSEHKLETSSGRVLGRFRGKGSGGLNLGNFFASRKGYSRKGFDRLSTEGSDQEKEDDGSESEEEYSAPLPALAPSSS

[3] = molecular target: T1, Peptidyl-glycine alpha-amidating monooxygenase; experiment: Competitive binding affinity to PAM extracted from human DMS53 cells using (R)-Tyr-(S)-ValGly as substrate after 2 hrs by HPLC analysis; design: species or system DMS-53
[4] = molecular target: T1, Peptidyl-glycine alpha-amidating monooxygenase; experiment: Competitive binding affinity to PAM secreted from human DMS53 cells using (R)-Tyr-(S)-ValGly as substrate after 2 hrs by HPLC analysis; design: species or system DMS-53
H889 = experiment: Selectivity ratio of IC50 for Xenopus laevis PAM to IC50 for PAM extracted from human H889 cells; type: cell-based
[5] = molecular target: T1, Peptidyl-glycine alpha-amidating monooxygenase; experiment: Competitive binding affinity to PAM extracted from human PC3 cells using (R)-Tyr-(S)-ValGly as substrate after 2 hrs by HPLC analysis; design: species or system PC-3
[6] = molecular target: T1, Peptidyl-glycine alpha-amidating monooxygenase; experiment: Competitive binding affinity to PAM secreted from human SW1783 cells using (R)-Tyr-(S)-ValGly as substrate after 2 hrs by HPLC analysis
[7] = molecular target: T2, Peptidyl-glycine alpha-amidating monooxygenase (Homo sapiens) (UniProt P19021); experiment: Potency index, ratio of Procalcitonin Km(app) to compound IC50 for PAM extracted from human DMS53 cells; type: cell-based; conditions: DMS-53
T2 sequence (whole entry): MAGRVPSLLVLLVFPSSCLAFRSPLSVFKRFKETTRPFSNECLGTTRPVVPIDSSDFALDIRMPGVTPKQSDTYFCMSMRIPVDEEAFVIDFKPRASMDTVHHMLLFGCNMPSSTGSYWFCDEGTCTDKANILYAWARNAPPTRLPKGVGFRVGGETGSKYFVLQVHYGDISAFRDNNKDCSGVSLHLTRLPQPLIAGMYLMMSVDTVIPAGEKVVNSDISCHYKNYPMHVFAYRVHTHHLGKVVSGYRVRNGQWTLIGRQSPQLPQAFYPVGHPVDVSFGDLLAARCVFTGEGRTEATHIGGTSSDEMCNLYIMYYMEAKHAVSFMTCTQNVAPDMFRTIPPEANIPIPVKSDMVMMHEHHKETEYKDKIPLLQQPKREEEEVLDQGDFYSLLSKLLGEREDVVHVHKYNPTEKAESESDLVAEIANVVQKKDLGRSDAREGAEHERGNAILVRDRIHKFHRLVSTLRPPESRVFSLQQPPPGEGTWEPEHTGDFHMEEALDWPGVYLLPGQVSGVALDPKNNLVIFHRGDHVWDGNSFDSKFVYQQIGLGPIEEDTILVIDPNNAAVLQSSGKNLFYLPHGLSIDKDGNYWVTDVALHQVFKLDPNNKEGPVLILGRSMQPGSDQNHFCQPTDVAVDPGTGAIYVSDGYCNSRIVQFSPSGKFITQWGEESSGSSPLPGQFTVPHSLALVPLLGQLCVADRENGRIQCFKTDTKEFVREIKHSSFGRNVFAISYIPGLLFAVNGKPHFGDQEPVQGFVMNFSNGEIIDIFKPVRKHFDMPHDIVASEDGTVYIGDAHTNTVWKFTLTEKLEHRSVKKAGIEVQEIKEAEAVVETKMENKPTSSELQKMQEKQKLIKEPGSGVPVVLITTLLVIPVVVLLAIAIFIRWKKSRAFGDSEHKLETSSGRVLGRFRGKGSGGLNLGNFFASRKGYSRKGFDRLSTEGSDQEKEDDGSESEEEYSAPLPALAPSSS

[8] = molecular target: T2, Peptidyl-glycine alpha-amidating monooxygenase (Homo sapiens); experiment: Potency index, ratio of Procalcitonin Km(app) to compound IC50 for PAM extracted from human H889 cells; type: cell-based
[9] = molecular target: T1, Peptidyl-glycine alpha-amidating monooxygenase; experiment: Competitive inhibition of PAM secreted from human PC3 cells by Dixon plot analysis; type: cell-based, PC-3
[10] = substrate: CC(=O)N[C@@H](Cc1ccccc1)C(=O)NCC(=O)O; experiment: as §2
[11] = substrate: O=C(O)CNC(=O)Cc1ccccc1; experiment: as §2
[12] = molecular target: Peptidyl-glycine alpha-amidating monooxygenase (Homo sapiens) (UniProt P19021); experiment: Competitive binding affinity to PAM extracted from human H889 cells using (R)-Tyr-(S)-ValGly as substrate after 2 hrs by HPLC analysis

**Q.** For `O=C(O)CNC(=O)Cc1ccccc1`, which Km (Xenopus laevis) is on record?
**A.** The Km was 440 µM.

**Q.** For `CSCC[C@H](NC(C)=O)C(=O)SCC(=O)O`, which IC50 [1] is on record?
**A.** Its IC50 is 50 µM.

**Q.** With `O=C(O)CSC(=O)Cc1ccccc1` as the molecule, how does the IC50 [1] read?
**A.** The IC50 was 20 µM.

**Q.** What about the IC50 [2] of the same molecule?
**A.** The IC50 was 45 µM.

**Q.** Which IC50 [1] does the source give for `CCCCCCCCCCCCCC(=O)OCC(=O)O` here?
**A.** The IC50 was 30 µM.

**Q.** With `CCCCCCCCCC(=O)NCC(=O)O` as the molecule, how does the Km (Xenopus laevis) read?
**A.** The Km was 440 µM.

**Q.** And the IC50 [3]?
**A.** Its IC50 is 30 µM.

**Q.** And the IC50 [4]?
**A.** The IC50 was 110 µM.

**Q.** Which IC50 [1] does the source give for `O=C(O)CSC(=O)c1ccccc1` here?
**A.** Its IC50 is 150 µM.

**Q.** Which IC50 [1] does the source give for `O=C(O)COC(=O)c1ccccc1` here?
**A.** Its IC50 is 250 µM.

**Q.** Which IC50 [1] does the source give for `CCCCCCCC(=O)OCC(=O)O` here?
**A.** Its IC50 is 250 µM.

**Q.** For `CC(=O)N[C@@H](Cc1ccccc1)C(=O)OCC(=O)O`, which IC50 [1] is on record?
**A.** The IC50 was > 2000 µM.

**Q.** For `O=C(O)COC(=O)Cc1ccccc1`, which IC50 [1] is on record?
**A.** The IC50 was 510 µM.

**Q.** And the IC50 [2]?
**A.** The IC50 was 2 µM.

**Q.** And the Ratio IC50 (H889)?
**A.** The Ratio IC50 was > 250.

**Q.** For `CC(=O)N[C@@H](Cc1ccccc1)C(=O)NCC(=O)O` (Ac-Phe-Gly-OH), which Km (Xenopus laevis) is on record?
**A.** Its Km is 170 µM.

**Q.** For `CC(=O)N[C@@H](CC(C)C)C(=O)SCC(=O)O`, which IC50 [1] is on record?
**A.** Its IC50 is 260 µM.

**Q.** For `CCCCCC(=O)OCC(=O)O`, which IC50 [1] is on record?
**A.** Its IC50 is 780 µM.

**Q.** For `CCCCCCCCCC(=O)OCC(=O)O`, which IC50 [1] is on record?
**A.** Its IC50 is 40 µM.

**Q.** What about the IC50 [2] of the same molecule?
**A.** Its IC50 is 0.05 µM.

**Q.** What about the IC50 [3] of the same molecule?
**A.** Its IC50 is 0.04 µM.

**Q.** And the IC50 [4]?
**A.** The IC50 was 30 µM.

**Q.** What about the IC50 [5] of the same molecule?
**A.** The IC50 was 0.12 µM.

**Q.** And the IC50 [6]?
**A.** Its IC50 is 30 µM.

**Q.** What about the Ratio IC50 (H889) of the same molecule?
**A.** The Ratio IC50 was 800.

**Q.** And the Ratio [7]?
**A.** Its Ratio is 5000.

**Q.** And the Ratio [8]?
**A.** The Ratio was 6000.

**Q.** What does the source list for `CCCCCCCCCCCC(=O)OCC(=O)O`?
**A.** IC50 [1]: 35 µM; IC50 [2]: 0.06 µM

**Q.** With `CC(=O)N[C@@H](Cc1ccccc1)C(=O)SCC(=O)O` as the molecule, how does the IC50 [1] read?
**A.** Its IC50 is 25 µM.

**Q.** What about the IC50 [2] of the same molecule?
**A.** Its IC50 is 45 µM.

**Q.** Which IC50 [1] does the source give for `CCCCCCCCCC(=O)SCC(=O)O` here?
**A.** The IC50 was 9 µM.

**Q.** With `O=C(O)C/C=C/c1ccccc1` as the molecule, how does the Ki [9] read?
**A.** The Ki was 0.096 µM.

B1: Peptidyl-glycine alpha-amidating monooxygenase (Homo sapiens), P19021 (protein)
chain: MAGRVPSLLVLLVFPSSCLAFRSPLSVFKRFKETTRPFSNECLGTTRPVVPIDSSDFALDIRMPGVTPKQSDTYFCMSMRIPVDEEAFVIDFKPRASMDTVHHMLLFGCNMPSSTGSYWFCDEGTCTDKANILYAWARNAPPTRLPKGVGFRVGGETGSKYFVLQVHYGDISAFRDNNKDCSGVSLHLTRLPQPLIAGMYLMMSVDTVIPAGEKVVNSDISCHYKNYPMHVFAYRVHTHHLGKVVSGYRVRNGQWTLIGRQSPQLPQAFYPVGHPVDVSFGDLLAARCVFTGEGRTEATHIGGTSSDEMCNLYIMYYMEAKHAVSFMTCTQNVAPDMFRTIPPEANIPIPVKSDMVMMHEHHKETEYKDKIPLLQQPKREEEEVLDQGDFYSLLSKLLGEREDVVHVHKYNPTEKAESESDLVAEIANVVQKKDLGRSDAREGAEHERGNAILVRDRIHKFHRLVSTLRPPESRVFSLQQPPPGEGTWEPEHTGDFHMEEALDWPGVYLLPGQVSGVALDPKNNLVIFHRGDHVWDGNSFDSKFVYQQIGLGPIEEDTILVIDPNNAAVLQSSGKNLFYLPHGLSIDKDGNYWVTDVALHQVFKLDPNNKEGPVLILGRSMQPGSDQNHFCQPTDVAVDPGTGAIYVSDGYCNSRIVQFSPSGKFITQWGEESSGSSPLPGQFTVPHSLALVPLLGQLCVADRENGRIQCFKTDTKEFVREIKHSSFGRNVFAISYIPGLLFAVNGKPHFGDQEPVQGFVMNFSNGEIIDIFKPVRKHFDMPHDIVASEDGTVYIGDAHTNTVWKFTLTEKLEHRSVKKAGIEVQEIKEAEAVVETKMENKPTSSELQKMQEKQKLIKEPGSGVPVVLITTLLVIPVVVLLAIAIFIRWKKSRAFGDSEHKLETSSGRVLGRFRGKGSGGLNLGNFFASRKGYSRKGFDRLSTEGSDQEKEDDGSESEEEYSAPLPALAPSSS
**Q.** Which results are given for B1?
**A.** Km [10]: 15 µM; Km [11]: 330 µM; Km [12]: 200 µM
